# Tests used:
# [1] = tested on: CD4+ T cells; experiment: CD4+ T cell proliferation inhibition (CFSE staining, flow cytometry); assay type: cell-based; settings: human blood CD4+ T cells; 1.25, 2.5, 5, 10 μM; 5 days; FIG. 2
# Procedure: (§1) PBMCs were transferred to a new tube using a pipette. After RBC lysis buffer was added to PBMC, centrifugation was performed, and then CD8 or CD4 cells were isolated using CD8 MicroBeads (Miltenyl Biotec, 130-045-201) or CD4 MicroBeads (Miltenyl Biotec, 130-096-533). A CFSE (-(and-6)-Carboxyfluorescein Diacetate, Succinimidyl Ester) labeling solution (Invitrogen, C1157) was added to the isolated cells. The compounds of Examples were dissolved in DMSO to make a 5 mM stock, then treated to make 1.25 μM, 2.5 μM, 5 μM, and 10 μM, respectively. After 5 days, the degree of cell proliferation was measured by the amount of CFSE staining using flow cytometry, and the results are shown in FIG. 2.
# [2] = tested on: C57BL/6 male mice; experiment: Mouse renal failure treatment model by Adenine diet; assay type: in vivo; settings: oral once a day 5, 10, 20 mg/kg for 2 weeks, starting 2 weeks after start of adenine
# Procedure: (§2) A feed containing adenine was administered to C57BL/6 male mice as described in Ali et al. J Pharmacol Toxicol Methods 2013; Jia et al. BMC Nephrol 2013; Tanaka et al. Am J Pathol 2009. Starting 2 weeks after the start of adenine administration, 5 mg/kg, 10 mg/kg and 20 mg/kg of the compounds of Examples were orally administered daily for 2 weeks (FIG. 4). Physiological saline was administered to the negative control group (vehicle). Blood BUN and Creatinine, which are the primary indicators of kidney function, were measured.
# Further, the degree of fibrosis of the mouse kidney tissue was measured through immunochemical staining, and the results are shown in FIG. 5.
# [3] = tested on: human primary kidney cells; experiment: Fibrotic factor inhibition in human primary kidney cells (western blot); assay type: cell-based; settings: 5 ng/ml TGFb, 1.25 µM, 2.5 μM, 5 μM, 48 hours, FIG. 7
# Procedure: Digestion buffer was added to human kidney tissue (preserved after biopsy), cut into small pieces with scissors, and then disintegrated through a shaker incubation for 90 minutes. After filtering the disintegrated tissue through a 70 μm filter cell strainer, the remaining tissue was filtered once again using a 40 μm filter cell strainer. The filtered disintegrated tissue solution was centrifuged, and the cells were isolated and cultured. The cultured cells were treated with 5 ng/ml TGFb and […], 2.5 μM, and 5 μM of the compounds of Examples, respectively, and then 48 hours later, cells were harvested, and western blot was performed to quantitatively analyze fibrotic factor proteins.
# [4] = tested on: gdT cells; experiment: Inhibition of IL-17 factor in gdT cells (IL-17A ELISA); assay type: cell-based; settings: gdT cells from normal human blood; 10 μM; IL-2 and IL-15 10 ng/ml each; FIG. 3
# Procedure: After collecting 10 ml of normal human blood, ficoll density gradient medium (Cytiva, 17144003) and PBS, the immune cell layer (PBMC) was isolated using a centrifuge. PBMCs were transferred to a new tube using a pipette. After RBC lysis buffer was added to PBMC, centrifugation was performed, and then 10 ng/ml of human IL-2 and IL-15 protein (cytokine) were respectively added to the cells, and cultured (for the purpose of inducing IL-17A). The compounds of Examples were dissolved in DMSO to make a 5 mM stock, and then 10 μM of the example compound was treated. On the 3rd and 5th days of cytokine treatment, 10 ng/ml of human IL-2 and IL-15 proteins (cytokine) were added, centrifuged, and the supernatant was collected. The IL-17A expression level was confirmed with the collected supernatant using an IL-17A ELISA kit (DY371, R&D Systems), and the results are shown in FIG. 3.
# [5] = tested on: C57BL/6 male mice; experiment: Mouse renal failure prevention model by Adenine diet; assay type: in vivo; settings: oral once a day 5, 10, 20 mg/kg for 4 weeks, simultaneously with adenine
# Procedure: as §2, with “2009. Simultaneously with” for “2009. Starting 2 weeks after”, “10 mg/kg,” for “10 mg/kg”, “for 4” for “for 2”, “(FIG. 8).” for “(FIG. 4).”
# Additionally, the degree of fibrosis of the mouse kidney tissue was measured through immunochemical staining.
# [6] = tested on: C57BL/6 male mice; experiment: NTN (Nephrotoxic Serum-Induced Nephritis) model; assay type: in vivo, mouse; settings: oral 5, 10, 20 mg/kg for 7 days from disease induction
# Procedure: After sensitizing C57BL/6 male mice with 200 μg sheep IgG and Freund's […] adjuvant, 10 μg of sheep nephrotoxic serum was injected after five days to induce disease. From the day the disease was induced, the compounds of Examples were orally administered at doses of 5 mg/kg, 10 mg/kg, and 20 mg/kg for 7 days, respectively. Saline was administered to the negative control group (vehicle). On day 8, renal function (uPCR, BUN) was assessed.
# The NTN model is a glomerulonephritis model that causes inflammation in the glomeruli, which induces proteinuria.
# [7] = tested on: Rat kidney cell line (NRK-49F cell line); experiment: Fibrotic factor inhibition in rat kidney cell line (western blot); assay type: cell-based; settings: 5 ng/ml TGFb, 2.5, 5, 10 μM, 48 hours, FIG. 6
# [8] = tested on: CD8+ T cells; experiment: CD8+ T cell proliferation inhibition (CFSE staining, flow cytometry); assay type: cell-based; settings: human blood CD8+ T cells; 1.25, 2.5, 5, 10 μM; 5 days; FIG. 2
# Procedure: as §1
smiles,measurement,setting,value
O[C@H]1CCCN[C@@H]1CCCn1cnc2c(Cl)c(Cl)ccc21 [Example],CD4+ T cell proliferation,[1],cell proliferation is inhibited
same,deterioration of renal function (blood BUN and Creatinine),[2]; FIG. 4,significantly inhibited in a dose-dependent manner
same,accumulation of collagen in renal tissue (immunochemical staining),[2]; FIG. 5,significantly inhibited in a dose-dependent manner
same,fibrotic factor collagen,[3],significantly inhibited
same,fibrotic factor fibronectin,[3],significantly inhibited
same,fibrotic factor αSMA,[3],significantly inhibited
same,IL-17 cytokine inhibition,[4],inhibited
same,deterioration of renal function (blood BUN and Creatinine),[5]; FIG. 8,significantly inhibited in a dose-dependent manner
same,preventive effect on kidney damage caused by Adenine diet,[5]; FIG. 8,exhibited preventive effect
same,collagen accumulation in renal tissue (immunochemical staining),[5]; FIG. 9,significantly inhibited in a dose-dependent manner
same,effect on damaged glomerular tissue,[6]; FIG. 10 and FIG. 11 (immunochemical staining),effective in damaged glomerular tissue
same,proteinuria (uPCR),"[6]; assessed day 8, PRSi 5 mg/kg on the left side of FIG. 10",significantly reducing proteinuria
same,fibrotic factor collagen,[7],significantly inhibited
same,fibrotic factor fibronectin,[7],significantly inhibited
same,fibrotic factor αSMA,[7],significantly inhibited
same,CD8+ T cell proliferation,[8],cell proliferation is inhibited

# Reference: US20260345556A1, “Pharmaceutical Composition for Preventing or Treating Nephritis” (Daewoong Pharmaceutical Co., Ltd., priority 2022, published 2026)
